Drawing on patent USRE46630E1, “Substituted 4-pyridones and their use as inhibitors of neutrophil elastase activity” (Boehringer Ingelheim International GmbH, priority 2012, dated 2017), this text covers IC50 for 52 molecules.

Bounds are passed on as bounds.

For this assay, the target named is T1, Human neutrophil elastase (Homo sapiens, UniProt P08246).
T1 construct: purchased Calbiochem 324681
T1 sequence (P08246 30-267): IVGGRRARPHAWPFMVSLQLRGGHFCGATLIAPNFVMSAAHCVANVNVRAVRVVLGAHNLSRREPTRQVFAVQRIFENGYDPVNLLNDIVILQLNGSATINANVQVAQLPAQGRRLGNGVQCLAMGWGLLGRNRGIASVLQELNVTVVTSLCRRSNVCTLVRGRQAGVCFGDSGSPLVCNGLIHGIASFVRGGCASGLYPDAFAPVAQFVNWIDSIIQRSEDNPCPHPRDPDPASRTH
The experiment in a line: Human Neutrophil Elastase Assay. It counts as biochemical. The settings on record: Neutrophil Elastase assay; substrate MeOSuc-Ala-Ala-Pro-Val-AMC 250 μM; 15 min preincubation, 60 min incubation at room temperature; pH 7.5. In short, it runs like this: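 Run in 100 mM Tris, 500 mM NaCl, pH 7.5 with 0.01% BSA, with compounds prediluted in DMSO then buffer (5% DMSO final). Fluorescence was read at 380 nm excitation/460 nm emission after enzyme inactivation. Values were normalised to inactivated-enzyme (0%) and uninhibited-enzyme (100%) controls.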
For the molecule `CCNC(=O)c1cn(Cc2ccc(C#N)cc2S(C)(=O)=O)c(C)c(-c2cccc(C(F)(F)F)c2)c1=O` [Example 21], the IC50 turned out to be 4.6 nM.

Turning to `Cc1c(-c2cccc(C(F)(F)F)c2)c(=O)c(C(=O)NCCOCCOCCO)cn1Cc1ccc(C#N)cc1` [Example 1.25], the midpoint of inhibition, the IC50, lay at 10.9 nM.

`CNC(=O)c1cn(Cc2ccc(C#N)c(F)c2)c(C)c(-c2cccc(C(F)F)c2)c1=O` [Example 33] displayed an IC50 of 14 nM.

The molecule `Cc1c(-c2ccnc(C(F)(F)F)c2)c(=O)c(C(=O)NCC(C)(C)O)cn1C(C)c1ccc(C#N)cc1` (stereo not shown) [Example 9.63] came in with an IC50 of 37.5 nM.

Molecule `Cc1c(-c2cccc(C(F)(F)F)c2)c(=O)c(C(=O)N[C@H]2CCC(=O)N(C)C2)cn1Cc1ccc(C#N)cc1` [Example 1.36] had a half-inhibitory concentration (IC50) of 47.1 nM.

In turn, `COCCCNC(=O)c1cn(C(C)c2ccc(C#N)cc2)c(C)c(-c2ccnc(C(F)(F)F)c2)c1=O` (stereo not shown) [Example 9.59] yielded an IC50 of 7.5 nM.

For the molecule `Cc1c(-c2cccc(Cl)c2)c(=O)c(C(=O)NCc2ccc(S(C)(=O)=O)cc2)cn1Cc1ccc(C#N)cc1` [Example 6.8], the IC50 is under 1 nM.

Take `Cc1c(-c2cccc(C(F)(F)F)c2)c(=O)c(C(=O)NCC(O)CO)cn1Cc1ccc(C#N)cc1` (stereo not shown) [Example 1.17, 1-(4-Cyano-benzyl)-6-methyl-4-oxo-5-(3-trifluoromethyl-phenyl)-1,4-dihydro-pyridine-3-carboxylic acid (2,3-dihydroxy-propyl)-amide]: the IC50 amounted to 21 nM.

Molecule `Cc1c(-c2cccc(C(F)(F)F)c2)c(=O)c(C(=O)NCc2cccnn2)cn1Cc1ccc(C#N)cc1` [Example 1.41] yielded an IC50 of 3.2 nM.

On to `Cc1c(-c2ccnc(C(F)(F)F)c2)c(=O)c(C(=O)NCC2CCCO2)cn1C(C)c1ccc(C#N)cc1` (stereo not shown) [Example 9.32], for which the IC50 stood at 19.4 nM.

The molecule `Cc1c(-c2cccc(C(F)(F)F)c2)c(=O)c(C(=O)NC2CCOC2)cn1Cc1ccc(C#N)cc1` (stereo not shown) [Example 1.37] showed an IC50 of 95.7 nM.

Take `Cc1c(-c2cccc(C(F)(F)F)c2)c(=O)c(C(=O)NCc2ccc(S(C)(=O)=O)cc2)cn1C(C)c1ccc(C#N)cn1` (stereo not shown) [Example 47.13]: the IC50 is under 1 nM.

The molecule `Cc1c(-c2cccc(C(F)(F)F)c2)c(=O)c(C(=O)NCc2ccc(=O)[nH]c2)cn1Cc1ccc(C#N)cc1` [Example 1.42] had an IC50 of 5.2 nM.

`CNC(=O)c1cn(Cc2ccc(C#N)cc2F)c(C)c(-c2ccnc(C(F)(F)F)c2)c1=O` [Example 42, 1-(4-Cyano-2-fluoro-benzyl)-2-methyl-4-oxo-2′-trifluoromethyl-1,4-dihydro-[3,4′]bipyridinyl-5-carboxylic acid methylamide] came in with a half-maximal inhibitory concentration (IC50) of 46 nM.

`Cc1c(-c2cccc(C(F)(F)F)c2)c(=O)c(C(=O)NC2CNC(=O)C2)cn1C(C)c1ccc(C#N)cc1` (stereo not shown) [Example 7.7] had an IC50 of 2.4 nM.

`Cc1c(-c2cccc(C(F)(F)F)c2)c(=O)c(C(=O)NC2CCNC2=O)cn1Cc1ccc(C#N)cc1` (stereo not shown) [Example 1.39] yielded an IC50 of 6.2 nM.

Turning to `CNC(=O)c1cn(C2CCc3cc(C#N)ccc32)c(C)c(-c2cccc(C(F)(F)F)c2)c1=O` (stereo not shown) [Example 37, 1-(5-Cyano-indan-1-yl)-6-methyl-4-oxo-5-(3-trifluoromethyl-phenyl)-1,4-dihydro-pyridine-3-carboxylic acid methylamide], the IC50 turned out to be 13.7 nM.

Molecule `Cc1c(-c2cccc(C(F)(F)F)c2)c(=O)c(C(=O)NCc2ccc(S(C)(=O)=O)cn2)cn1Cc1ccc(C#N)cc1F` [Example 4.9] registered a 50% inhibitory concentration (IC50) of under 1 nM.

For `Cc1c(-c2cccc(C(F)(F)F)c2)c(=O)c(C(N)=O)cn1Cc1ccc(C#N)cc1` [Example 1.52], the IC50 is 9.6 nM.

`COCCNC(=O)c1cn(C(C)c2ccc(C#N)cc2)c(C)c(-c2ccnc(C(F)(F)F)c2)c1=O` (stereo not shown) [Example 9.57] came in with an IC50 of 5.2 nM.

`CNC(=O)c1cn(C(C)c2ccc(C#N)cc2)c(C)c(-c2cccc(C(F)F)c2)c1=O` (single isomer, unassigned) [Example 8A]: the IC50 came to 1.2 nM.

For the molecule `Cc1c(-c2cccc(C(F)(F)F)c2)c(=O)c(C(=O)NC2CCN(C)C2=O)cn1C(C)c1ccc(C#N)cn1` (stereo not shown) [Example 47.12], the IC50 worked out at 7.3 nM.

`CCCS(=O)(=O)c1cc(C#N)ccc1Cn1cc(C(=O)NC)c(=O)c(-c2cccc(C(F)(F)F)c2)c1C` [Example 25, 1-[4-Cyano-2-(propane-1-sulfonyl)-benzyl]-6-methyl-4-oxo-5-(3-trifluoromethyl-phenyl)-1,4-dihydro-pyridine-3-carboxylic acid methylamide] returned an IC50 of 14 nM.

Consider `Cc1c(-c2cccc(C(F)(F)F)c2)c(=O)c(C(=O)NCc2ccc(S(C)(=O)=O)cc2)cn1Cc1ccc(C#N)nc1` [Example 2.4], for which it took 1.4 nM to reach half-maximal inhibition (IC50).

`CNC(=O)c1cn(Cc2ccc(C#N)cc2)c(C)c(-c2cccc(C(F)(F)F)c2)c1=O` [Example 1.11] returned an IC50 of 14.4 nM.

For the molecule `COc1cc(C#N)ccc1Cn1cc(C(=O)NCc2ccc(S(C)(=O)=O)cc2)c(=O)c(-c2cccc(C(F)(F)F)c2)c1C` [Example 2.6], the midpoint of inhibition, the IC50, lay at 1.6 nM.

Consider `Cc1c(-c2cccc(C(F)(F)F)c2)c(=O)c(C(=O)NCCCN(C)C)cn1Cc1ccc(C#N)cc1` [Example 1.4], for which inhibition was half-maximal at 27.6 nM (IC50).

In turn, `Cc1c(-c2cccc(C(F)(F)F)c2)c(=O)c(C(=O)NCCN2CCNC2=O)cn1Cc1ccc(C#N)cc1` [Example 1.21] yielded an IC50 of 14.4 nM.

The molecule `Cc1c(-c2cccc(C(F)(F)F)c2)c(=O)c(C(=O)NCC[S+](C)[O-])cn1C(C)c1ccc(C#N)cc1` (stereo not shown) [Example 7.8] came in with an IC50 of 1.3 nM.

Molecule `Cc1c(-c2cccc(C(F)F)c2)c(=O)c(C(=O)NCc2ccccn2)cn1C(C)c1ccc(C#N)cc1` (stereo not shown) [Example 8.19] had a concentration for half-maximal inhibition (IC50) of 1.7 nM.

`Cc1c(-c2cccc(C(F)(F)F)c2)c(=O)c(C(=O)NCc2cn(C)cn2)cn1Cc1ccc(C#N)cc1` [Example 1.31] displayed an IC50 of 13.7 nM.

`Cc1noc(CNC(=O)c2cn(C(C)c3ccc(C#N)cc3)c(C)c(-c3cccc(C(F)F)c3)c2=O)n1` (stereo not shown) [Example 8.2] registered an IC50 of 1.9 nM.

Regarding `Cc1c(-c2cccc(C(F)(F)F)c2)c(=O)c(C(=O)NCC(C)O)cn1Cc1ccc(C#N)cc1` (stereo not shown) [Example 1.23], the IC50 turned out to be 19 nM.

`Cc1c(-c2ccnc(C(F)(F)F)c2)c(=O)c(C(=O)NCC2(C)COC2)cn1C(C)c1ccc(C#N)cc1` (stereo not shown) [Example 9.38] registered a concentration for half-maximal inhibition (IC50) of 33.3 nM.

Molecule `Cc1c(-c2cccc(C(F)(F)F)c2)c(=O)c(C(=O)NCC2COCCO2)cn1Cc1ccc(C#N)cc1` (stereo not shown) [Example 1.35] yielded an IC50 of 31.4 nM.

The molecule `Cc1c(-c2cccc(C(F)(F)F)c2)c(=O)c(C(=O)NC2COC2)cn1Cc1ccc(C#N)cc1` [Example 1.38] displayed an IC50 of 36.9 nM.

Turning to `Cc1c(-c2ccnc(C(F)(F)F)c2)c(=O)c(C(=O)NCC2CCCO2)cn1C(C)c1ccc(C#N)cc1` (stereo not shown) [Example 9.26], 12.1 nM corresponded to half-maximal inhibition (IC50).

Molecule `Cc1c(-c2cccc(C(F)F)c2)c(=O)c(C(=O)NC2CCNC2=O)cn1C(C)c1ccc(C#N)cc1` (stereo not shown) [Example 8.12] gave an IC50 of 1.4 nM.

Molecule `CCNC(=O)c1cn(C(C)c2ccc(C#N)cc2)c(C)c(-c2cccc(C(F)(F)F)c2)c1=O` (single isomer, unassigned) [Example 10A] had an IC50 of under 1 nM.

For `Cc1c(-c2cccc(C(F)(F)F)c2)c(=O)c(C(=O)NCCO)cn1Cc1ccc(C#N)cc1` [Example 1.1, 1-(4-Cyano-benzyl)-6-methyl-4-oxo-5-(3-trifluoromethyl-phenyl)-1,4-dihydro-pyridine-3-carboxylic acid (2-hydroxy-ethyl)-amide], the IC50 was 15.2 nM.

In the case of `Cc1c(-c2cccc(C(F)(F)F)c2)c(=O)c(C(=O)NC2CCN(C)C2=O)cn1C(C)c1ccc(C#N)cc1` (stereo not shown) [Example 7.10], the midpoint of inhibition, the IC50, lay at 2 nM.

Consider `Cc1c(-c2cccc(C(F)(F)F)c2)c(=O)c(C(=O)NC2CCOCC2)cn1C(C)c1ccc(C#N)cn1` (stereo not shown) [Example 47.10], for which the IC50 is 19.2 nM.

For the molecule `CCNC(=O)c1cn(C(C)c2ccc(C#N)cn2)c(C)c(-c2cccc(C(F)(F)F)c2)c1=O` (stereo not shown) [Example 17, 1-[1-(5-Cyano-pyridin-2-yl)-ethyl]-6-methyl-4-oxo-5-(3-trifluoromethyl-phenyl)-1,4-dihydro-pyridine-3-carboxylic acid ethylamide], the IC50 was determined as 4.5 nM.

`COc1cncc(-c2c(C)n(Cc3ccc(C#N)cc3)cc(C(=O)NCc3ccc(S(C)(=O)=O)cc3)c2=O)c1` [Example 6.7] registered an IC50 of 75.3 nM.

Turning to `Cc1nc(CNC(=O)c2cn(Cc3ccc(C#N)cc3)c(C)c(-c3cccc(C(F)(F)F)c3)c2=O)no1` [Example 1.60], the IC50 came to 13.3 nM.

For `Cc1c(-c2cccc(C(F)(F)F)c2)c(=O)c(C(N)=O)cn1C(C)c1ccc(C#N)cc1` (stereo not shown) [Example 7.17], 18.5 nM corresponded to half-maximal inhibition (IC50).

For `Cc1nnc(CNC(=O)c2cn(C(C)c3ccc(C#N)cc3)c(C)c(-c3cccc(C(F)F)c3)c2=O)o1` (stereo not shown) [Example 8.5], the IC50 was 1.2 nM.

Regarding `Cc1c(-c2ccnc(C(F)(F)F)c2)c(=O)c(C(=O)NCC(C)C)cn1C(C)c1ccc(C#N)cc1` (stereo not shown) [Example 9.53], the midpoint of inhibition, the IC50, lay at 23 nM.

As to `Cc1c(-c2cccc(C(F)F)c2)c(=O)c(C(=O)NCCO)cn1C(C)c1ccc(C#N)cc1` (stereo not shown) [Example 8.9], the 50% inhibitory concentration (IC50) is 1.9 nM.

`Cc1c(-c2cccc(C(F)(F)F)c2)c(=O)c(C(=O)NCC(C)O)cn1C(C)c1ccc(C#N)cc1` (stereo not shown) [Example 7.14] registered an IC50 of 4.7 nM.

For `Cc1c(-c2ccnc(C(F)(F)F)c2)c(=O)c(C(=O)NCC2CCOC2)cn1C(C)c1ccc(C#N)cc1` (stereo not shown) [Example 9.21], 9.5 nM corresponded to half-maximal inhibition (IC50).

Regarding `Cc1c(-c2cccc(C(F)(F)F)c2)c(=O)c(C(=O)NCc2ccn(C)n2)cn1Cc1ccc(C#N)cc1` [Example 1.34], half-maximal inhibition (IC50) required 8.9 nM.
